Measured values reported in ChEMBL document CHEMBL1147341, “Unprecedented oxylipins from the marine green alga Acrosiphonia coalita” (J Nat Prod, 1993).
Active and inactive are the calls of the source. The rule behind the calls is not given here.

Tested on: Candida albicans
Assay: Antifungal activity against Candida albicans at 100 ug/disk by sensitive disk method
Type: functional, organism-based

CC[C@H](O)/C=C/C=C/C=C/C=O
Activity: Active
